In patent US5496703A, “Indirect immunoassay for dioxinlike compounds” (priority 1993, dated 1996):
“Also recorded” adds a separate entry of the source.

Assays:
[1] = tested on: protein tyrosylphosphorylation of hepatic S-9 proteins; assay: Immunoblot / densitometry of hepatic S-9 phosphotyrosyl proteins, mice dosed i.p.; assay type: in vivo, C57BL/6 mice
Protocol: Female, C57BL/6 mice (or any cytochrome P-450IA1 inducible strain) were obtained from Harton Sprague Dawley (Indianapolis, Ind.). Experiments were performed using four to six week old, female mice weighing approximately 16 to 20 g. Mice were fed Prolab RMH 1000 rat, mouse and hamster food (Agway, Cortland, N.Y.) and received tap water ad libitum. All mice were housed three to five per cage and maintained on a photoperiod of 12 hours. Mice were killed 24 hours following an intraperitoneal injection of either corn oil alone or TCDD (Analabs) at 0.25, 0.5, 1, 2, 4, 10, 50 μg/kg, the volume of the injections ranged from 0.1 to 0.2 ml per mouse. Hepatic S-9 fractions were prepared by homogenizing the liver in 3 times the volume of 0.15M KCl. Following a 9000×g centrifugation for 20 minutes, the supernatant (S-9) fraction was carefully removed and quickly frozen for storage at -80° C.
(§1) The separation of S-9 proteins by means of SDS PAGE was performed by mixing the S-9 1:1 with a double strength sodium dodecyl sulfate sample buffer and heating the solution at 100° C. for 3 minutes prior to one-dimensional SDS polyacrylamide gel electrophoresis with 10% polyacrylamide. After electrophoresis, a Milliblot SDS electroblot apparatus (Millipore, Bedford, Mass.) was used to transfer the proteins from the polyacrylamide gels to an Immobilon™ membrane filter (Millipore). Complete transfers were accomplished in 25-30 minutes at 500 mA and were assessed by tracking pre-stained molecular weight standards onto the membrane filter. Membrane filters were blocked by incubating in TBS (Tris buffered saline) containing 5% milk for 30 minutes at 37° C. The membranes were then washed in TBST (TBS with 0.05% Tween 20) and incubated overnight with antiphosphotyrosine monoclonal antibody (1.5 μg/mL) in TBST. The primary antibody was removed, and the membranes were washed four times in TBST. To visualize the antibody reaction, the membranes were incubated for 3 hours at 37° C. with alkaline phosphatase-conjugated antimouse IgG diluted 1:1000 in TBST, washed 3 times in TBST, and developed for 15 to 30 minutes. Determination of molecular weights of immuno-stained proteins was performed by adding molecular weight standards (Bio Rad) to reference lanes and staining the membrane filters with amido black.
(§2) The indicated densitometric measurements were made on a BioImage AK Kodak Visage 110.
An estimate of the limit of detection of dioxinlike activity can be made using the 0.25 μg/kg dose as the minimally effective dose. At this level of administration of TCDD, the 37 kDalton band becomes easily visible. Assuming a 20 g mouse, the diethyl ether extract would have to contain 5 ng of dioxin equivalents to initiate a tryosylphosphorylation of the 37 kDalton protein. […]

[2] = tested on: protein tyrosylphosphorylation in X3 human lymphoblastoma cells; assay: Immunoblot / densitometry of X3 cell lysate phosphotyrosyl proteins; assay type: cell-based
Protocol: as §2
The X3 human lymphoblastoma cells (Genetest, Wolburn, Mass.) were grown in 75 cm^2 T-flasks in RPMI 1640 medium (Gibco) containing 9% horse serum. Any cell or cell line expressing cytochrome P-450IA1 may be used. The cells were cultured at 37° C. in a 5% CO2 (balance air) environment. Cells were subcultured by centrifuging (1000 rpm, 3 minutes) and resuspended in fresh media to a volume of 50 mL (at a cell density of 1.0×10^6 cells/mL). The TCDD-corn oil solution was homogenized with serum to a final concentration of 0.10 μg/mL. The TCDD-serum was added at concentrations of 0, 0.02, 0.05, 0.1, 0.5 and 1.0 nM per flask and incubated for 16 hours. After the appropriate incubation time, the cells were harvested by centrifugation and washed three times (PBS, […]). A final cell count was then determined.
as §1, with “of cell lysate” for “of S-9”, “the cell lysate” for “the S-9”, “Milliblot SDE” for “Milliblot SDS”, “25-30 min” for “25-30 minutes”, “with antiphoshphotyrosine” for “with antiphosphotyrosine”
An estimate of the limit of detection of dioxinlike activity can be made using the 0.2 nM dose as the minimally effective dose. At this level of administration the 57 kDalton band becomes easily visible. Assuming a 100 μL incubation well (e.g., in a 96 well microtiter plate), the diethyl ether extract would have to contain approximately 37.5 pg of dioxin equivalents to initiate a tyrosylphosphorylation of the 57 kDalton protein. This amount would be present in the extract of a 2 g sample containing 20 parts per trillion of dioxin equivalents. If the 33 kDalton protein were used to quantitate the dioxinlike activity, the limit of detection based upon a response at the EC50 of 0.04 nM, would be approximately 4 ppt. Since it is generally believed that an action concentration of dioxin is 50 ppt and current instrumental methods detect approximately 3.5 ppt, this level of analysis is sufficient for initial regulatory or health considerations.

[3] = tested on: DBA/2 strain; conditions: DBA/2 mouse; cited from earlier work

Clc1cc2c(cc1Cl)Oc1cc(Cl)c(Cl)cc1O2 [TCDD, 2,3,7,8-tetrachlorodibenzo-p-dioxin]
minimal effective dose ([1]; Mus musculus, ip, 24 h, in vivo limit-of-detection estimate, read-out: minimally effective dose (37 kDalton band easily visible)): 0.25 µg/kg
ED50 ([1]; Mus musculus, ip, densitometry of immunoblot, i.p., 24 hours after dosing, read-out: ED50, 44 kDalton protein tyrosylphosphorylation): 0.5 µg/kg
dose of maximal 44 kDalton protein tyrosylphosphorylation ([1]; densitometry of immunoblot, i.p., 24 hours after dosing): 1 μg TCDD/kg
tyrosylphosphorylation of the 37 kDalton protein ([1]; immunoblot, i.p., 24 hours): resulted in the tyrosylphosphorylation of the 37 kDalton protein; also recorded: highly phosphorylated at tyrosine residues
minimal effective concentration ([2]; Homo sapiens, 16 h, limit-of-detection estimate, read-out: minimally effective dose (57 kDalton band easily visible)): 0.0002 µM
EC50 ([2]; Homo sapiens, densitometry of immunoblot, 16 hours, read-out: EC50, 33 kDalton protein tyrosylphosphorylation): 0.04 nM
concentration of maximal 33 kDalton protein tyrosylphosphorylation ([2]; densitometry of immunoblot, 16 hours): 0.1 nM
pTP at 57 kDaltons ([2]; immunoblot): highly phosphorylated at tyrosine residues; also recorded: appeared in all X3 cells treated with TCDD
pTP at 110 kDaltons ([2]; immunoblot): decreased with increasing TCDD concentration; also recorded: decreased in intensity
susceptibility to TCDD toxicity [3]: relatively resistant
